Values joined by “and” are separate entries in the source; they are usually repeats but may differ in a detail not shown here. Equal values may be shown once. Read-outs that look alike come from different tables or passages of the source.
How the values were obtained:
M. tuberculosis H37Rv [1] = type: cell-based, Mycobacterium tuberculosis; details: for RFU/200 μl (replicates1-3), single values / RFU/ml (×104) / RFU/200 μl (average): Fig 2A
M. tuberculosis H37Rv [2] = type: in vivo, BALB/c mice
M. tuberculosis H37Rv [3] = type: in vivo, BALB/c mice; set-up: Efficacy in BALB/C mouse model of pulmonary tuberculosis, Average / Efficacy in BALB/C mouse model of pulmonary tuberculosis, values of mice 1-6: unit not given here; details: Fig 4C, group dose 30, 6 mice

NNC(=O)c1ccncc1 [INH, isoniazid, reference compound]
RFU/200 μl (replicates1-3), single values (M. tuberculosis H37Rv [1]; drug conc. 0.19): 54850 RFU/200 μl and 54780 RFU/200 μl and 48860 RFU/200 μl and 48850 RFU/200 μl and 51920 RFU/200 μl and 53630 RFU/200 μl and 53710 RFU/200 μl and 53510 RFU/200 μl and 54820 RFU/200 μl
RFU/ml (×104) (M. tuberculosis H37Rv [1]; drug conc. 0.19): 26.4 RFU/ml (×104)
RFU/200 μl (average) (M. tuberculosis H37Rv [1]; drug conc. 0.19, average of each replicate set): 49877 RFU/200 μl and 53617 RFU/200 μl and 54817 RFU/200 μl
RFU/200 μl (replicates1-3), single values (M. tuberculosis H37Rv [1]; drug conc. 0.39): 12610 RFU/200 μl and 12620 RFU/200 μl and 10050 RFU/200 μl and 11010 RFU/200 μl and 12080 RFU/200 μl and 10560 RFU/200 μl and 10740 RFU/200 μl and 10520 RFU/200 μl and 12650 RFU/200 μl
RFU/ml (×104) (M. tuberculosis H37Rv [1]; drug conc. 0.39): 5.7 RFU/ml (×104)
RFU/200 μl (average) (M. tuberculosis H37Rv [1]; drug conc. 0.39, average of each replicate set): 11047 RFU/200 μl and 10607 RFU/200 μl and 12627 RFU/200 μl
RFU/200 μl (replicates1-3), single values (M. tuberculosis H37Rv [1]; drug conc. 0.78): 7570 RFU/200 μl and 7470 RFU/200 μl and 7230 RFU/200 μl and 7160 RFU/200 μl and 7680 RFU/200 μl and 7340 RFU/200 μl and 7150 RFU/200 μl and 7460 RFU/200 μl and 7540 RFU/200 μl
RFU/ml (×104) (M. tuberculosis H37Rv [1]; drug conc. 0.78): 3.7 RFU/ml (×104)
RFU/200 μl (average) (M. tuberculosis H37Rv [1]; drug conc. 0.78, average of each replicate set): 7357 RFU/200 μl and 7317 RFU/200 μl and 7527 RFU/200 μl
concentration with significant antitubercular effect (M. tuberculosis H37Rv [1]; fluorescence-based assay): 0.78 µg/mL and 0.39 µg/mL
Efficacy in BALB/C mouse model of pulmonary tuberculosis, Average (M. tuberculosis H37Rv [2]; Fig 4A, group dose 30, 6 mice): 4583
reduction of bacterial load in lungs compared to drug-free group (M. tuberculosis H37Rv [2]; mouse, in vivo): similar
granulomatous lesions in lung sections (HE staining) (M. tuberculosis H37Rv [2]; mouse, in vivo, po): limited number of small granulomatous lesions
Efficacy in BALB/C mouse model of pulmonary tuberculosis, Average (M. tuberculosis H37Rv [3]): 226667
